{
  "source": "patent US11452731B2",
  "about": "“Method of treating and preventing loss of cognition” (ENDORECHERCHE, INC., priority 2009, dated 2022)",
  "assay": "Clinical trial ERC-205: DHEA 50 mg daily versus placebo on hot flushes in postmenopausal women (Example 10)",
  "type": "in vivo",
  "details": "50 mg",
  "method": "Postmenopausal women experiencing moderate or severe hot flushes per week (as determined by a two week diary) were randomized to receive a daily dose of either placebo or 50 mg DHEA. Fifty evaluable participants (25 patients per arm) were treated for four months with a daily assessment of hot flushes recorded in a diary completed by each participant.\nPostmenopausal women aged 40 to 70 years with moderate or severe hot flushes per week, as confirmed by a two-week screening hot flush diary were enrolled after signing informed consent. The protocol was approved by the Institutional Review Board (IRB) of Le Centre Hospitalier de l'Université Laval and by Health Canada.\nThe primary endpoint was the change from Baseline in the weekly frequency of moderate to severe hot flushes at Week 16, after four months of treatment. The objectives also included the change from Baseline in the weekly frequency of all hot flushes and the change from Baseline in the weekly weighted severity score.\nThe response endpoint is the patient's paper diary which was filled in daily to specify the number and type of hot flushes as follows:\nThe hot flush diary began as a Screening diary for two weeks prior to randomization whereby patients had to complete the diary daily, recording the number and severity of hot flushes. The patients had to record an average of 50 or more moderate or severe hot flushes per week over the two-week period to be eligible (i.e., at least 100 hot flushes documented on the two week Screening diary).\nOnce randomized, the patient completed eight, two-week hot flush diaries upon beginning study medication. The diaries had to be filled out on a daily basis. The first diary was completed over the first two weeks and be returned on the two week visit. The second two-week diary was completed over the next two weeks of the first four week treatment period and was returned at the four week visit. At 4, 8, 12 and 16 week visits, two two-week diaries for hot flushes were collected.",
  "key": {"[1]": {"details": "strata 50 to 70 hot flushes per week at screening, Week 16"}, "[2]": {"details": "strata ≥71 hot flushes per week at screening, Screening (mean of 2 w), baseline"}, "[3]": {"details": "strata ≥71 hot flushes per week at screening, Week 1"}, "[4]": {"details": "strata ≥71 hot flushes per week at screening, Week 2"}, "[5]": {"details": "strata ≥71 hot flushes per week at screening, Week 3"}, "[6]": {"details": "strata ≥71 hot flushes per week at screening, Week 4"}, "[7]": {"details": "strata ≥71 hot flushes per week at screening, Week 5"}, "[8]": {"details": "strata ≥71 hot flushes per week at screening, Week 6"}, "[9]": {"details": "strata ≥71 hot flushes per week at screening, Week 7"}, "[10]": {"details": "strata ≥71 hot flushes per week at screening, Week 8"}, "[11]": {"details": "strata ≥71 hot flushes per week at screening, Week 9"}, "[12]": {"details": "strata ≥71 hot flushes per week at screening, Week 10"}, "[13]": {"details": "strata ≥71 hot flushes per week at screening, Week 11"}, "[14]": {"details": "strata ≥71 hot flushes per week at screening, Week 12"}, "[15]": {"details": "strata ≥71 hot flushes per week at screening, Week 13"}},
  "data": [
    {"compound": "C[C@]12CC[C@H](O)CC1=CC[C@@H]1[C@@H]2CC[C@]2(C)C(=O)CC[C@@H]12", "note": "[DHEA, dehydroepiandrosterone]", "values": [
      {"measurement": "WEIGHTED SEVERITY SCORE OF HOT FLUSHES PER WEEK (MEAN)", "setting": "strata 50 to 70 hot flushes per week at screening, Week 15", "result": 83.7},
      {"measurement": "NUMBER OF ALL HOT FLUSHES PER WEEK (MEAN)", "setting": "[1]", "result": 35.7},
      {"measurement": "NUMBER OF MODERATE TO SEVERE HOT FLUSHES PER WEEK (MEAN)", "setting": "[1]", "result": 32.7},
      {"measurement": "WEIGHTED SEVERITY SCORE OF HOT FLUSHES PER WEEK (MEAN)", "setting": "[1]", "result": 81.6},
      {"measurement": "NUMBER OF ALL HOT FLUSHES PER WEEK (MEAN)", "setting": "[2]", "result": 91.0},
      {"measurement": "NUMBER OF MODERATE TO SEVERE HOT FLUSHES PER WEEK (MEAN)", "setting": "[2]", "result": 88.5},
      {"measurement": "WEIGHTED SEVERITY SCORE OF HOT FLUSHES PER WEEK (MEAN)", "setting": "[2]", "result": 241.6},
      {"measurement": "NUMBER OF ALL HOT FLUSHES PER WEEK (MEAN)", "setting": "[3]", "result": 68.6},
      {"measurement": "NUMBER OF MODERATE TO SEVERE HOT FLUSHES PER WEEK (MEAN)", "setting": "[3]", "result": 64.1},
      {"measurement": "WEIGHTED SEVERITY SCORE OF HOT FLUSHES PER WEEK (MEAN)", "setting": "[3]", "result": 175.2},
      {"measurement": "NUMBER OF ALL HOT FLUSHES PER WEEK (MEAN)", "setting": "[4]", "result": 57.9},
      {"measurement": "NUMBER OF MODERATE TO SEVERE HOT FLUSHES PER WEEK (MEAN)", "setting": "[4]", "result": 53.5},
      {"measurement": "WEIGHTED SEVERITY SCORE OF HOT FLUSHES PER WEEK (MEAN)", "setting": "[4]", "result": 150.8},
      {"measurement": "NUMBER OF ALL HOT FLUSHES PER WEEK (MEAN)", "setting": "[5]", "result": 57.5},
      {"measurement": "NUMBER OF MODERATE TO SEVERE HOT FLUSHES PER WEEK (MEAN)", "setting": "[5]", "result": 52.5},
      {"measurement": "WEIGHTED SEVERITY SCORE OF HOT FLUSHES PER WEEK (MEAN)", "setting": "[5]", "result": 149.8},
      {"measurement": "NUMBER OF ALL HOT FLUSHES PER WEEK (MEAN)", "setting": "[6]", "result": 62.7},
      {"measurement": "NUMBER OF MODERATE TO SEVERE HOT FLUSHES PER WEEK (MEAN)", "setting": "[6]", "result": 57.8},
      {"measurement": "WEIGHTED SEVERITY SCORE OF HOT FLUSHES PER WEEK (MEAN)", "setting": "[6]", "result": 166.5},
      {"measurement": "NUMBER OF ALL HOT FLUSHES PER WEEK (MEAN)", "setting": "[7]", "result": 60.0},
      {"measurement": "NUMBER OF MODERATE TO SEVERE HOT FLUSHES PER WEEK (MEAN)", "setting": "[7]", "result": 53.2},
      {"measurement": "WEIGHTED SEVERITY SCORE OF HOT FLUSHES PER WEEK (MEAN)", "setting": "[7]", "result": 154.1},
      {"measurement": "NUMBER OF ALL HOT FLUSHES PER WEEK (MEAN)", "setting": "[8]", "result": 53.9},
      {"measurement": "NUMBER OF MODERATE TO SEVERE HOT FLUSHES PER WEEK (MEAN)", "setting": "[8]", "result": 47.6},
      {"measurement": "WEIGHTED SEVERITY SCORE OF HOT FLUSHES PER WEEK (MEAN)", "setting": "[8]", "result": 138.7},
      {"measurement": "NUMBER OF ALL HOT FLUSHES PER WEEK (MEAN)", "setting": "[9]", "result": 52.2},
      {"measurement": "NUMBER OF MODERATE TO SEVERE HOT FLUSHES PER WEEK (MEAN)", "setting": "[9]", "result": 46.7},
      {"measurement": "WEIGHTED SEVERITY SCORE OF HOT FLUSHES PER WEEK (MEAN)", "setting": "[9]", "result": 137.2},
      {"measurement": "NUMBER OF ALL HOT FLUSHES PER WEEK (MEAN)", "setting": "[10]", "result": 48.9},
      {"measurement": "NUMBER OF MODERATE TO SEVERE HOT FLUSHES PER WEEK (MEAN)", "setting": "[10]", "result": 43.3},
      {"measurement": "WEIGHTED SEVERITY SCORE OF HOT FLUSHES PER WEEK (MEAN)", "setting": "[10]", "result": 129.0},
      {"measurement": "NUMBER OF ALL HOT FLUSHES PER WEEK (MEAN)", "setting": "[11]", "result": 47.0},
      {"measurement": "NUMBER OF MODERATE TO SEVERE HOT FLUSHES PER WEEK (MEAN)", "setting": "[11]", "result": 41.1},
      {"measurement": "WEIGHTED SEVERITY SCORE OF HOT FLUSHES PER WEEK (MEAN)", "setting": "[11]", "result": 121.8},
      {"measurement": "NUMBER OF ALL HOT FLUSHES PER WEEK (MEAN)", "setting": "[12]", "result": 46.9},
      {"measurement": "NUMBER OF MODERATE TO SEVERE HOT FLUSHES PER WEEK (MEAN)", "setting": "[12]", "result": 41.6},
      {"measurement": "WEIGHTED SEVERITY SCORE OF HOT FLUSHES PER WEEK (MEAN)", "setting": "[12]", "result": 121.6},
      {"measurement": "NUMBER OF ALL HOT FLUSHES PER WEEK (MEAN)", "setting": "[13]", "result": 42.8},
      {"measurement": "NUMBER OF MODERATE TO SEVERE HOT FLUSHES PER WEEK (MEAN)", "setting": "[13]", "result": 36.4},
      {"measurement": "WEIGHTED SEVERITY SCORE OF HOT FLUSHES PER WEEK (MEAN)", "setting": "[13]", "result": 110.2},
      {"measurement": "NUMBER OF ALL HOT FLUSHES PER WEEK (MEAN)", "setting": "[14]", "result": 39.3},
      {"measurement": "NUMBER OF MODERATE TO SEVERE HOT FLUSHES PER WEEK (MEAN)", "setting": "[14]", "result": 33.1},
      {"measurement": "WEIGHTED SEVERITY SCORE OF HOT FLUSHES PER WEEK (MEAN)", "setting": "[14]", "result": 98.7},
      {"measurement": "NUMBER OF ALL HOT FLUSHES PER WEEK (MEAN)", "setting": "[15]", "result": 39.3},
      {"measurement": "NUMBER OF MODERATE TO SEVERE HOT FLUSHES PER WEEK (MEAN)", "setting": "[15]", "result": 33.9},
      {"measurement": "WEIGHTED SEVERITY SCORE OF HOT FLUSHES PER WEEK (MEAN)", "setting": "[15]", "result": 102.8},
      {"measurement": "NUMBER OF ALL HOT FLUSHES PER WEEK (MEAN)", "setting": "strata ≥71 hot flushes per week at screening, Week 14", "result": 37.3}
    ]}
  ]
}
